In patent publication US11166924B2, “N-methyl-d-aspartate receptor allosteric modulators and methods for their use” (Qingdao Primedicine Pharmaceutical Company, Ltd., priority 2016, dated 2021):

Assays:
[1] = molecular target: T1, GluN2A NMDARs in GluN2B-lacking neurons (Mus musculus, UniProt P35436+P35438); experiment: Whole-cell recordings in GluN2B-knockout cortical neurons; format: cell-based; details: compared to NMDA control
T1 construct: endogenous in cells; host or cells: primary cortical neurons from GluN2B-knockout mouse embryos
T1 sequence (P35436 23-1464, other chains not shown): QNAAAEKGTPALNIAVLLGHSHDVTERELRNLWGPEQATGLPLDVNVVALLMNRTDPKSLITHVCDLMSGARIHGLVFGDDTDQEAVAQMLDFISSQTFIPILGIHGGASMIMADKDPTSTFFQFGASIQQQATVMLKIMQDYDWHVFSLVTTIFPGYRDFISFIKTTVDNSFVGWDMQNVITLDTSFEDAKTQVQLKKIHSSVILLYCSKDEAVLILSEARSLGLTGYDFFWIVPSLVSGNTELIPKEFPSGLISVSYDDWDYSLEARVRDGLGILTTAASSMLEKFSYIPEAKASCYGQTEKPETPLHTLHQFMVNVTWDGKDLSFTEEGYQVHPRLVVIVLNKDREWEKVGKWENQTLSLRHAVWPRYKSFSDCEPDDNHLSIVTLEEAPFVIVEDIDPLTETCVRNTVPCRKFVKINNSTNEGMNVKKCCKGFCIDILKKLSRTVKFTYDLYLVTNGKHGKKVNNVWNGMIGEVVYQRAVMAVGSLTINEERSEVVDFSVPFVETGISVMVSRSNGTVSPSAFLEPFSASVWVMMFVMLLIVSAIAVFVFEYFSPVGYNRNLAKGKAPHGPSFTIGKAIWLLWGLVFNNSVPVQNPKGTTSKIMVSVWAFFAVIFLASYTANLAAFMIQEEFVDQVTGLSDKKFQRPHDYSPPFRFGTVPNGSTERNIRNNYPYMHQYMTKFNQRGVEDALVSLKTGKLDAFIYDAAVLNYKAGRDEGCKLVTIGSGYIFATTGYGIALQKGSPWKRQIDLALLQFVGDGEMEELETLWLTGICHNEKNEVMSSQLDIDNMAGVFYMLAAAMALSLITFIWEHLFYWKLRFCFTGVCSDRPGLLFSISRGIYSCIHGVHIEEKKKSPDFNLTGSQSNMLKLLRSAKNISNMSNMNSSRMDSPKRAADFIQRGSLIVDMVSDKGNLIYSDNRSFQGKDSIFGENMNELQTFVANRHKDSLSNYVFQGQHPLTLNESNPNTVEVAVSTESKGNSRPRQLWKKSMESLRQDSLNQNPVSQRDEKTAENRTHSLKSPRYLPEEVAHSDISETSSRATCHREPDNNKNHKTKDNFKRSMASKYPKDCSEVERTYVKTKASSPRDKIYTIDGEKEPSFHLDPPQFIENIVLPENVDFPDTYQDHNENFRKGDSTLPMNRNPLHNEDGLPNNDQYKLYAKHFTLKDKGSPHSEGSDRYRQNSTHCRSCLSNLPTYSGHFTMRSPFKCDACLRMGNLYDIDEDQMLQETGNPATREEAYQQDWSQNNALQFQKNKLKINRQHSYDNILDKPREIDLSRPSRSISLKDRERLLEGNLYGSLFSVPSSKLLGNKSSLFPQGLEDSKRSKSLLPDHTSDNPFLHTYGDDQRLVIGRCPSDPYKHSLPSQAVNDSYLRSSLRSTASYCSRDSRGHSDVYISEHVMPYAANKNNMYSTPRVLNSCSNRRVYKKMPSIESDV

GABAR = experiment: GABA-induced currents in cultured hippocampal neurons; format: cell-based
Protocol: Whole cell patch-clamp recordings were performed under voltage-clamp mode using an Axopatch 200B or 1D patch-clamp amplifier (Molecular Devices). Whole-cell currents were recorded at a holding potential of −60 mV unless indicated elsewhere, and signals were filtered at 2 kHz, digitized at 10 kHz (Digidata 1322A). Recording pipettes (3-5 MΩ) were filled with the intracellular solution that contained (mM): CsCl 140, HEPES 10, Mg-ATP 4, QX-314 5, pH 7.20; osmolarity, 290-295 mOsm. BAPTA (10 mM) was added in the intracellular solution (otherwise specified). The coverslips were continuously superfused with the extracellular solution containing (mM): NaCl 140, KCl 5.4, HEPES 10, CaCl2 1.3, glucose 20, pH 7.4; osmolarity, 305-315 mOsm. NMDA, GABA or AMPA induced currents were either applied by NMDA, GABA, AMPA either through perfusion fast-step (Warner Instruments). […]
Next, the inventor evaluated the selectivity profile for Npam02 on two other key ionotropic receptors of the central nervous system (CNS): α-amino-3-hydroxy-5-methyl-4-isoxazolepropionic acid receptor AMPAR, which are known to be a non-NMDA type ionotropic transmembrane receptor for glutamate that mediates fast synaptic transmission in the central nervous system (CNS) and GABA receptors which are the principal inhibitory ligand-gated ion channel receptor. […]

cortical neurons [2] = experiment: NMDA-induced excitotoxicity (LDH release) in cortical neurons; format: cell-based, rat; details: in the absence of NVP-AAM007; FIG. 16
Protocol: Lactate dehydrogenase (LDH) is a cytoplasmic enzyme that can convert nicotinamide adenine dinucleotide (NAD) into NADH (the reduced form). LDH is released from cells into culture medium when the plasma membrane integrity is compromised. Therefore, the amount of released LDH represents the degree of cell death. In this study, the extracellular LDH level was measured using an in vitro toxicology assay kit obtained from Sigma-Aldrich (no. TOX-7). The basis of this LDH assay is as follows: (1) LDH reduces NAD into NADH, (2) the resulting NADH is then used in the stoichiometric conversion of a tetrazolium dye, and (3) the resulting colored compound is measured by a spectrophotometric microplate reader at a wavelength of 490 nm. The cell death rate was expressed as a ratio (%) between the absorbance of the treated group and that of the control group.
Cortical cultures were treated with Npam43, and assessed for NMDA-induced excitotoxicity after 20-24 hrs by measuring lactate dehydrogenase (LDH) release. […] LDH release was measured using an in vitro toxicology assay kit obtained from Sigma-Aldrich (no. TOX-7). The cell death rate was expressed as a ratio (%) between the absorbance of the treated group and that of the control group.

cortical neurons [3] = experiment: H2O2-induced cytotoxicity in cortical neurons; format: cell-based; details: in the absence of NVP-AAM007; FIG. 17
hippocampal slices (LTP) = experiment: Long-term potentiation (LTP) in hippocampal slices; details: mouse hippocampal slices; FIG. 19
Source text: 6-8 week old C57/Bl6 mice or rats underwent cervical dislocation followed by decapitation. The brain was immediately transferred to an ice cold NMDG-based cutting solution consisting of: (in mM): 120 NMDG, 2.5 KCl, 1.2 NaH2PO4, 25 NaHCO3, 1.0 CaCl2, 7.0 MgCl2, 2.4 Na-pyruvate, 1.3 Na-ascorbate, 20 D-glucose with pH adjusted to 7.35 using HCl acid (unless stated, all chemicals and drugs were purchased from Sigma or BioShop, Canada). The hippocampus was dissected out and transverse hippocampal slices (400 μm) were obtained using a manual tissue chopper (Stoelting, Wood Dale, Ill., USA). Slices recovered in a heated (30° C.) incubating chamber for 1 hr which contained ACSF composed of (in mM): 124 NaCl, 3 KCl, 1.25 NaH2PO4, 1 MgSO47H2O, 2 CaCl2), 26 NaHCO3 and 15 D-glucose which was bubbled continuously with carbogen (95% O2/5% CO2) (pH to 7.3). After 30 additional minutes at room temperature, slices were transferred to a submerged recording chamber and were perfused continuously with carbogenated ACSF (2-3 ml/min). Whole-cell recordings of CA1 pyramidal neurons were performed using the “blind” method with a MultiClamp 700B amplifier. EPSCs (excitatory post synaptic currents) were elicited by stimulating the SC pathway. For isolation of NMDAR currents, cells were voltage clamped at +40 mV. […]

Structure (SMILES)	Positive modulation of NMDAR currents ([1]; 100 μM bath, NMDA 20 μM, glycine 2 μM)	Potentiation effect with co-applied ifenprodril (IF) ([1]; GluN2B-knockout neurons)	NMDAR current change with NVP-AAM007 (0.2 μM) and Npam02 ([1]; Npam02 100 μM)	Effect on GABAR mediated currents (GABAR)	NMDA-induced excitotoxicity (cortical neurons [2])	H2O2-induced non-NMDAR dependent cytotoxicity (cortical neurons [3])	Induction of LTP (hippocampal slices (LTP))
COc1cccc(/C=N/NC(=O)c2ccccc2C)c1O [Npam02, (E)-N′-(2-hydroxy-3-methoxybenzylidene)-2-methylbenzohydrazide]	44.72±4.29%	42.22±4.03%	88.87±3.45%	no observable effects			
CCOc1cc(Cl)c(Cl)c(/C=N/NC(=O)c2ccccc2Br)c1O [Npam43, (E)-2-bromo-N′-(2,3-dichloro-5-ethoxy-6-hydroxybenzylidene)benzohydrazide]					reduced	reduced	can facilitate the induction of LTP
